ChEMBL document CHEMBL5236616, “Chlorinated Naringenin Analogues as Potential Inhibitors of Transthyretin Amyloidogenesis” (J Med Chem, 2022)
In brackets after ≈: the same amount, converted by molar mass. Activity calls are given as the source filed them. No cut-off for these calls is given here.

Assays:
[1] = system: Transthyretin (Homo sapiens), P02766 [V50M]; assay: Binding affinity to TTR V30M mutant (unknown origin) expressed in Escherichia coli assessed as change in enthalpy by ITC assay
[2] = system: Transthyretin (Homo sapiens), P02766 [V50M]; assay: Binding affinity to TTR V30M mutant (unknown origin) expressed in Escherichia coli assessed as gibbs free energy change by ITC assay
[3] = system: Transthyretin (Homo sapiens), P02766 [V50M]; assay: Binding affinity to TTR V30M mutant (unknown origin) expressed in Escherichia coli assessed as change in entropy by ITC assay
[4] = system: Transthyretin (Homo sapiens), P02766 [V50M]; assay: Inhibition of acid mediated TTR V30M mutant aggregation (unknown origin) expressed in Escherichia coli preincubated for 30 mins followed by acid stimulation and measured after 96 hrs by fluorescence spectrophotometer analysis; settings: time 96.5 hrs
[5] = Drug concentration in rat plasma at 1.82 mg/kg, po; assay type: ADME, organism-based; settings: in vivo
Transthyretin = Transthyretin (Homo sapiens, UniProt P02766, V50M); assay: Binding affinity to TTR V30M mutant (unknown origin) expressed in Escherichia coli by ITC assay
[6] = target: Transthyretin (Homo sapiens) (UniProt P02766); assay: Displacement of (E)-S-phenyl 3(4-hydroxy-3,5-dimethylstyryl)benzothioate from human plasma TTR at 20 uM incubated for 6 hrs by fluorescence based assay; assay type: cell-free
[7] = Aqueous solubility of compound at pH 6.8 incubated for 4 hrs; assay type: physicochemical; settings: aqueous medium
[8] = Ratio of drug concentration in Sprague-Dawley rat brain to plasma at 1 mg/kg, po after 8 hrs by LC-MS/MS analysis; assay type: ADME, organism-based
[9] = Drug concentration in Sprague-Dawley rat plasma at 1 mg/kg, iv after 8 hrs by LC-MS/MS anlaysis; assay type: ADME, organism-based
[10] = Drug concentration in Sprague-Dawley rat eye ball at 1 mg/kg, po after 8 hrs by LC-MS/MS anlaysis; assay type: ADME, organism-based, Eyeball of camera-type eye; settings: read-out: Ct
[11] = Ratio of drug concentration in Sprague-Dawley rat eye ball to plasma at 1 mg/kg, po after 8 hrs by LC-MS/MS analysis; assay type: ADME, organism-based
[12] = Plasma protein binding in rat assessed as unbound fraction at 1 uM incubated for 4 hrs by rapid equilibrium dialysis method; assay type: ADME, cell-free
[13] = Drug concentration in Sprague-Dawley rat eye ball at 1 mg/kg, iv after 8 hrs by LC-MS/MS anlaysis; assay type: ADME, organism-based, Eyeball of camera-type eye; settings: read-out: Ct
[14] = Ratio of drug concentration in Sprague-Dawley rat brain to plasma at 1 mg/kg, iv after 8 hrs by LC-MS/MS analysis; assay type: ADME, organism-based
[15] = Aqueous solubility of compound at pH 1.2 incubated for 4 hrs; assay type: physicochemical; settings: aqueous medium
[16] = Ratio of drug concentration in Sprague-Dawley rat eye ball to plasma at 1 mg/kg, iv after 8 hrs by LC-MS/MS analysis; assay type: ADME, organism-based
[17] = Permeability of compound at 10 uM after 4 hrs by LC-MS/MS based PAMPA; assay type: ADME; settings: read-out: permeability
[18] = Drug concentration in Sprague-Dawley rat brain at 1 mg/kg, iv after 8 hrs by LC-MS/MS anlaysis; assay type: ADME, organism-based; settings: read-out: Ct
[19] = Drug concentration in Sprague-Dawley rat brain at 1 mg/kg, po after 8 hrs by LC-MS/MS anlaysis; assay type: ADME, organism-based; settings: read-out: Ct
[20] = Drug concentration in Sprague-Dawley rat plasma at 1 mg/kg, po after 8 hrs by LC-MS/MS anlaysis; assay type: ADME, organism-based

O=C1C[C@@H](c2ccc(O)cc2)Oc2cc(O)cc(O)c21 [NARINGENIN]
deltaH [1]: -10.9 kcal/mol | deltaG [2]: -7.9 kcal/mol | TdeltaS [3]: 1.32 kcal/mol | IC50 [4]: 12 µM | concentration [5]: 1500 nM | Kd (Transthyretin): 1.63 µM

O=C1CC(c2ccc(O)c(Cl)c2)Oc2cc(O)cc(O)c21 (stereo not given)
deltaH [1]: -13.2 kcal/mol | Activity [6]: Active | deltaG [2]: -8.73 kcal/mol | TdeltaS [3]: 4.47 kcal/mol | IC50 [4]: 5.3 µM | Kd (Transthyretin): 0.403 µM

O=C1CC(c2ccc(O)c(Cl)c2)Oc2cccc(O)c21 (stereo not given)
IC50 [4]: 7.2 µM

O=C1CC(c2cc(Cl)c(O)c(Cl)c2)Oc2cccc(O)c21 (stereo not given)
deltaH [1]: -8.61 kcal/mol | Activity [6]: Active | deltaG [2]: -10.9 kcal/mol | TdeltaS [3]: -2.28 kcal/mol | IC50 [4]: 3.6 µM | Kd (Transthyretin): 0.013 µM

O=C1CC(c2cc(Cl)c(O)c(Cl)c2)Oc2ccc(O)cc21 (stereo not given)
IC50 [4]: 4.3 µM

O=C1CC(c2ccc(O)c(Cl)c2)Oc2ccc(O)cc21 (stereo not given)
IC50 [4]: 5.9 µM

O=C1CC(c2cc(Cl)c(O)c(Cl)c2)Oc2cc(O)cc(O)c21 (stereo not given)
deltaH [1]: -16.7 kcal/mol | solubility at 4 h [7]: 28.3 µM (≈ 9.65 µg/mL) | Kp at 8 h [8]: 0.058 | concentration at 8 h [9]: 717 nM | concentration at 8 h [10]: 37.1 nM | Kp at 8 h [11]: 0.139 | Activity [6]: Active | Fu [12]: 0.081% | deltaG [2]: -10.7 kcal/mol | concentration at 8 h [13]: 150 nM | Kp at 8 h [14]: 0.074 | solubility at 4 h [15]: 0.66 µM (≈ 0.225 µg/mL) | Kp at 8 h [16]: 0.209 | Papp at 4 h, 10 µM [17]: > 50 ×10⁻⁶ cm/s | concentration at 8 h [18]: 53.1 nM | concentration at 8 h [19]: 15.6 nM | TdeltaS [3]: 6 kcal/mol | IC50 [4]: 3.7 µM | concentration at 8 h [20]: 267 nM | Kd (Transthyretin): 0.016 µM

O=C1CC(c2ccc(Cl)cc2)Oc2cc(O)cc(O)c21 (stereo not given)
IC50 [4]: 15 µM

O=C1CC(c2cc(Cl)c(O)c(Cl)c2)Oc2cc(O)ccc21 (stereo not given)
deltaH [1]: -13.2 kcal/mol | Activity [6]: Active | deltaG [2]: -10.4 kcal/mol | TdeltaS [3]: 2.78 kcal/mol | IC50 [4]: 4.6 µM | Kd (Transthyretin): 0.026 µM

O=C1CC(c2ccc(O)c(Cl)c2)Oc2cc(O)ccc21 (stereo not given)
IC50 [4]: 6 µM

O=C1CC(c2cc(Cl)cc(Cl)c2)Oc2cc(O)cc(O)c21 (stereo not given)
deltaH [1]: -7.42 kcal/mol | Activity [6]: Active | deltaG [2]: -13.6 kcal/mol | TdeltaS [3]: -6.17 kcal/mol | IC50 [4]: 3.8 µM | Kd (Transthyretin): 0.006 µM
